Reference: paper PMC3976407, “Inhibition of Fatty Acid Binding Proteins Elevates Brain Anandamide Levels and Produces Analgesia” (PLoS ONE, 2014)

Legend:
HeLa cells = test: Cytotoxicity, MTT colorimetric assay; assay type: cell-based; details: 24 hr incubation, n = 3
Description: Cytotoxicity of the FABP inhibitors SBFI26 and BMS309403 were examined using the MTT [3-(4,5-dimethylthiazol-2-yl)-2,5 diphenyl tetrazolium bromide] colorimetric assay. HeLa cells were seeded into 96-well plates (15,000 cells/well) and incubated for 24 hours at 37°C in DMEM supplemented with 10% FBS, penicillin (100 U/mL) and streptomycin (100 μg/mL). The cells were subsequently washed with PBS and treated with serum-free DMEM containing 10 nM to 1 mM SBFI26, BMS309403, or 5 mM hydrogen peroxide as a positive control. Following a 24 hr incubation, the cells were washed with PBS and treated with MTT (0.5 mg/mL in PBS) for 4 hrs. The cells were subsequently solubilized using DMSO and the absorbance was read at 562 nm in a microplate reader.

FABP3 [1] = biological target: T1, FABP3 (Homo sapiens, UniProt P05413); parameters: method as in PMID 22170058; details: determined previously ref 9; cited from earlier work
T1 sequence (P05413 whole entry, species assumed): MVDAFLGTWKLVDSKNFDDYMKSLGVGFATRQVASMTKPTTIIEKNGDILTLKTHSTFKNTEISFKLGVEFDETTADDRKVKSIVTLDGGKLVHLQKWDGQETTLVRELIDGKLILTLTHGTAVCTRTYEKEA

FABP5 [2] = biological target: T2, FABP5 (Homo sapiens, UniProt Q01469); parameters: method as in PMID 22170058; details: determined previously ref 9; cited from earlier work
T2 sequence (Q01469 whole entry, species assumed): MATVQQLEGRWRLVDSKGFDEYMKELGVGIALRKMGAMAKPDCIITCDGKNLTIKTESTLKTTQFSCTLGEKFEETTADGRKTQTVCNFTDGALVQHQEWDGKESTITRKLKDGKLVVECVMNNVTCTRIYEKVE

FABP7 [3] = biological target: T3, FABP7 (Homo sapiens, UniProt O15540); parameters: method as in PMID 22170058; details: determined previously ref 9; cited from earlier work
T3 sequence (O15540 whole entry, species assumed): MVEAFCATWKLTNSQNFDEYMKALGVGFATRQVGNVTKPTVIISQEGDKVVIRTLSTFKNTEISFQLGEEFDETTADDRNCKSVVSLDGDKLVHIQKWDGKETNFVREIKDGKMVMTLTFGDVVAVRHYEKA

[4] = tested on: acetic acid-induced writhing in mice; test: Acetic acid-induced writhing; assay type: in vivo, mouse; details: for Effect upon acetic acid-induced writhing: 20 mg/kg, subcutaneous, 60 min before acetic acid
Description: Mice were acclimated to the laboratory environment for at least two hours and were habituated to the testing chamber for 30 min prior to acetic acid challenge. SBFI26, SBFI50, SBFI60, and SBFI62 (20 mg/kg) were administered via the subcutaneous route 60 min before acetic acid. Rimonabant, SR144528, GW6471, and naloxone were given 10 min before the inhibitors via the subcutaneous route. The mice subsequently received an i.p. injection of acetic acid (0.6% in sterile saline, 10 μl/g) and were placed in observation chambers. Abdominal stretches (marked by extension of the body and hind limbs) were counted for 20 min starting at 5 min post-injection.

FABP5 [5] = biological target: T2, FABP5; test: NBD-stearate fluorescence displacement binding; details: averages ± S.E. of three independent experiments
Description: Inhibitory constant (Ki) values were elucidated utilizing NBD-stearate fluorescence displacement as described previously, [31]. The tests were performed in 96-well plates containing inhibitors (0.1 – 50.0 μM), FABP, and NBD-stearate. Fluorescence intensity was measured with a FLUOstar OPTIMA spectrofluorometer with excitation and emission wavelengths of 460 and 544 nm, respectively.

[6] = tested on: carrageenan-induced thermal hyperalgesia and paw edema in mice; test: Carrageenan-induced paw edema and thermal hyperalgesia; assay type: in vivo, mouse; details: 20 mg/kg, i.p.
Description: Paw edema was induced by injecting 1% λ-carrageenan (20 μl, in sterile saline) into the plantar surface of the left hind paw using a 30 gauge needle attached to a glass syringe (Hamilton Company). Paw diameters were measured before carrageenan injection and 4 or 24 hours after injection using digital electronic calipers (Fisher) and expressed to the nearest ± 0.01 mm. SBFI26, SBFI50, SBFI60, and SBFI62 were dissolved in DMSO:cremophor-EL:saline (4% DMSO:10% Cremophor-EL) and administered (20 mg/kg, i.p.) 60 min prior to injection of carrageenan. Receptor antagonists were injected 10 min before the inhibitors. Rimonabant and SR144528 (3 mg/kg, i.p.) were dissolved in ethanol:cremophor-EL:saline (1∶1∶18) while GW6471 (4 mg/kg, i.p.) was dissolved in DMSO:cremophor-EL:saline (2% DMSO:5% Cremophor-EL). Edema is reported as the change in paw diameter at 24 hr compared to the baseline. Thermal hyperalgesia was measured using the Hargreaves plantar apparatus (Ugo Basile) as previously reported.

[7] = tested on: formalin-induced nociception in mice; test: Formalin test; assay type: in vivo, mouse; details: 20 mg/kg, i.p.; for Effect upon first phase of formalin-induced nociception: first phase 0–5 min
Description: Mice were habituated to the observation chamber (Plexiglas box, 25 cm×25 cm×25 cm) for 30 min prior to formalin injection. Mice were administered FABP inhibitors 60 min prior to formalin. The animals subsequently received an injection of formalin (2.5% in saline, 20 μl) into the plantar surface of the right hind paw using a 30 gauge needle and were immediately placed back into the observation chamber and nocifensive behavior (time spent licking or biting the paw) was recorded for 60 min. Nocifensive behavior was scored during the first phase (0–5 min) and the second phase (∼15–45 min) of the formalin test.

rats subjected to CCI = test: Rat neuropathic pain model (chronic constriction injury of the sciatic nerve); assay type: in vivo; details: 20 mg/kg i.p.
Text: Male Fisher 344 rats were habituated and pre-injury evoked responses were obtained. The Hargreaves test was used to assess thermal hyperalgesia. Briefly, plexiglass enclosures were set atop a plexiglass platform and infrared source set at 50% power located under the platform was used as the heat stimulus (Ugo Basile). A 200 mW, 535 nm diode laser was mounted in an adjustable stand placed beneath the plexiglass platform, and was used as an alternative heat stimulus for some of the animals in this study. The latency time to hind paw lift during heating of the plantar surface was recorded. Five recordings were obtained on each hind paw with at least 2 min rest between measurements. The maximum time for exposure to the infrared or diode laser source was 30.5 s to avoid any possible tissue injury. For mechanical threshold measurements, the animal enclosures rested on a screen with mesh of 0.5 cm spacing. Following acclimation, an electronic von Frey Anesthesiometer (IITC Life Sciences) was applied with increasing pressure to the plantar surface of the hind paw until the animals lifted the hind paw. The number of grams of force applied by the probe to induce withdrawal was recorded. Five recordings were obtained on each hind paw with at least 3 min between measurements. For CCI surgeries, our procedure closely followed that reported previously. Briefly, each animal received an i.p. injection of ketamine/xylazine (75 mg/kg and 10 mg/kg, respectively). The hind leg was surgically prepped and the anesthetized animal placed prone on an sterile towel over a heating pad. The temperature was monitored rectally. A skin incision was made mid-thigh with a medium curved scalpel and then scissors were used to expose the sciatic nerve. Approximately 1 cm of the main trunk proximal to the trifuraction was isolated and 4 strands of 4-0 chromic gut were tied around the nerve ∼ 1 mm apart under magnification. In a modification of the original method, a 2-0 prolene strand was placed between the nerve and the gut to which the suture was tightened. The prolene strand was then removed. This prevented over tightening and reduced subsequent motor paralysis. The muscle layers were then reopposed and sutured, and surgical staples were used to close the skin. On post-injury days 7 through 10, heat and mechanical measurements were obained for the ipsilateral hindpaw of each CCI animal. Immediately following the post-injury measurements, animals were randomized and received i.p. injections of vehicle or 20 mg/kg SBI26 (DMSO:cremophor:sterile saline 1∶1∶2 by volume). Up to 0.8 ml of drug or vehicle was injected. The observer was blinded as to administration of drug or vehicle. Thermal and mechanical measurements were performed at 1 and 4 h post-injection. Data were normalized to pre-injury baseline measurements for each animal.

FABP3 [8] = biological target: T1, FABP3; test: NBD-stearate fluorescence displacement binding
Description: (§1) Inhibitory constant (Ki) values were elucidated utilizing NBD-stearate fluorescence displacement as described previously [9], [31]. The tests were performed in 96-well plates containing inhibitors (0.1 – 50.0 μM), FABP, and NBD-stearate. Fluorescence intensity was measured with a FLUOstar OPTIMA spectrofluorometer with excitation and emission wavelengths of 460 and 544 nm, respectively.

FABP7 [9] = biological target: T3, FABP7; test: NBD-stearate fluorescence displacement binding
Description: as §1

| Compound | Ki (FABP5 [5]) [nM] | Effect upon carrageenan-induced paw edema [6] | Effect upon carrageenan-induced thermal hyperalgesia [6] | Effect upon first phase of formalin-induced nociception [7] | Effect upon acetic acid-induced writhing [4] | Ki (FABP3 [8]) [nM] | Ki (FABP7 [9]) [nM] | other results |
| --- | --- | --- | --- | --- | --- | --- | --- | --- |
| CCc1c(-c2ccccc2)c(-c2ccccc2)nn1-c1ccccc1-c1cccc(OCC(=O)O)c1 [BMS309403, reference compound] | – | – | – | – | – | – | – | Cytotoxicity _50 values (HeLa cells): 11.3 ± 0.9 µM |
| CCCCCCC(CCCCCCCCCCC(=O)O)N(C)c1ccc([N+](=O)[O-])c2nonc12 (centres unmarked) [NBD-stearate, 12-N-methyl-(7-nitrobenz-2-oxa-1,3-diazo)aminostearicacid] | – | – | – | – | – | – | – | Kd (FABP3 [1]): 180 nM; Kd (FABP5 [2]): 160 nM; Kd (FABP7 [3]): 220 nM |
| O=C(Nc1cccnc1)N1CCC(Cc2cccc(Oc3ccc(C(F)(F)F)cn3)c2)CC1 [PF-3845, reference compound] | – | – | – | – | – | – | – | Antinociceptive effects in the acetic acid test after pretreatment with CB1 antagonist rimonabant ([4]; rimonabant 3 mg/kg 10 min before inhibitor): blocked |
| O=C(O)C1C(c2ccccc2)C(C(=O)Oc2ccc3ccccc3c2)C1c1ccccc1 (stereo not drawn) [SBFI50, alpha-2,4-diphenylcyclobutane-1,3-dicarboxylic acid mono-2-naphthyl ester] | 1300 ± 200 | reduced | reduced | reduced | without effect | 3500 ± 300 | 600 ± 100 | Effect on mechanical thresholds in CCI rats (rats subjected to CCI; 1 and 4 h): Neither compound altered; Effect on thermal hyperalgesia in CCI rats (rats subjected to CCI; measured 1 and 4 h post-injection): without effect |
| O=C(O)C1C(c2ccccc2)C(C(=O)Nc2cccc3ccccc23)C1c1ccccc1 (stereo not drawn) [SBFI60, alpha-2,4-diphenylcyclobutane-1,3-dicarboxylic acid mono-1-naphthyl amide] | 1600 | without effect | without effect | reduced | without effect | > 10000 | 300 | – |
| O=C(Nc1cccc2ccccc12)C1C(c2ccccc2)C(C(=O)Nc2cccc3ccccc23)C1c1ccccc1 (centres unmarked) [SBFI62, 2,4-diphenylcyclobutane-1,3-dicarboxylic acid di-1-naphthyl amide] | 3300 ± 700 | without effect | without effect | without effect | without effect | 2600 ± 1100 | 6100 ± 500 | Effect upon second phase of formalin-induced nociception ([7]; second phase ∼15–45 min): without effect |
